In patent US20060074108A1, “Matrix metalloprotease (MMP) inhibitors and their application in cosmetic and pharmaceutical composition” (Bioderm Research, priority 2004, published 2006):

Columns and labels:
TRP-2 = assay: tyrosinase enzyme based model: inhibition of color formation from the action of TRP-2 on tyrosine, spectrophotometric rate kinetics; format: biochemical; conditions: TRP-2 model extended as predictive to MMP-2 and MMP-9 inhibition, wound healing application
Text: It is based on the inhibition of a tyrosinase enzyme based model system, for example Canters et al., “Kinetic and paramagnetic NMR investigations of the inhibition of Streptomyces antibioticus tyosinase”, Journal of Molecular Catalysis, B: Enzymatics, vol. 8, 27-35 (2000). Tyrosinase is a copper-based monooxygenase enzyme that catalyzes the hydroxylation of monophenols (hydroxybenzenes) and the oxidation of ortho-diphenols to ortho-quinones. The active-site of tyrosinase is known to contain two copper ions (CuA and CuB). […] The regions around these copper-binding ligands are well conserved. Moreover, the distance between these two copper ions is […] [(van Amsterdam et al., Angewandte Chemie, 42: 62-64 (2003); Bubacco et al., J. Biol. Chem., 181-194 (2003)]. At least two proteins related to tyrosinase are known to exist in mammals, and include TRP-1, which is responsible for the conversion of 5,6-dihydroxyindole-2-carboxylic acid (DHICA) to indole-5,6-quinone-2-carboxylic acid (IQCA) or indole-5,6-quinone (IQ); and TRP-2, which is the melanogenic enzyme DOPAchrome tautomerase that catalyzes the conversion of DOPAchrome to DHICA. TRP-2 differs from tyrosinases and TRP-1 in that it binds two zinc ions instead of copper. Other proteins that belong to this family are plant polyphenol oxidases (PPO), which catalyze the oxidation of mono- and ortho-diphenols to ortho-diquinone. […] The colorless tyrosine is converted into yellow/orange colored ortho-diquinone of tyrosine, which is spectrophotometrically quantitated and its rate kinetics thus established.

MMP-13 = MMP-13 (Homo sapiens, UniProt P45452); conditions: in words; cited from earlier work
MMP-9 = MMP-9 (Homo sapiens, UniProt P14780); conditions: in words; cited from earlier work
MMP-9, sequence (P14780 94-707, species assumed): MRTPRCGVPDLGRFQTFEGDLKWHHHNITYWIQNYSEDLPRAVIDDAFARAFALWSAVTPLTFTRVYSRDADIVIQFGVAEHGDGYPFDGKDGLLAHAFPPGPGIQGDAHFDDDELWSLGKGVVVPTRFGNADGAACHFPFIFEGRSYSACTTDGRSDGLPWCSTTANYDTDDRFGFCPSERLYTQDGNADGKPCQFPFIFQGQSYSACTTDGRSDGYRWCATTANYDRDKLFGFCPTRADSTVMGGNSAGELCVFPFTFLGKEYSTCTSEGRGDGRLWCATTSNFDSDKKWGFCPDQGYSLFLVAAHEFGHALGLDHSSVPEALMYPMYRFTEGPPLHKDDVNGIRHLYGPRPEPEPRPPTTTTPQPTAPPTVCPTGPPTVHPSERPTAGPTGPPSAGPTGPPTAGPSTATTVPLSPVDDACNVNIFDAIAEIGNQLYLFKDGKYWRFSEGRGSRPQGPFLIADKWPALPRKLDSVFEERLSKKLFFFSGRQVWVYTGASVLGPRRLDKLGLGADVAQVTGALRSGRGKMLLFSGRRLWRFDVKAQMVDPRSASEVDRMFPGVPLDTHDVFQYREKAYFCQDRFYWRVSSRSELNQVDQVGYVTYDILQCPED

MMP-1 = biological target: T1, MMP-1 (Homo sapiens, UniProt P03956); conditions: in words; cited from earlier work
T1 sequence (P03956 100-469): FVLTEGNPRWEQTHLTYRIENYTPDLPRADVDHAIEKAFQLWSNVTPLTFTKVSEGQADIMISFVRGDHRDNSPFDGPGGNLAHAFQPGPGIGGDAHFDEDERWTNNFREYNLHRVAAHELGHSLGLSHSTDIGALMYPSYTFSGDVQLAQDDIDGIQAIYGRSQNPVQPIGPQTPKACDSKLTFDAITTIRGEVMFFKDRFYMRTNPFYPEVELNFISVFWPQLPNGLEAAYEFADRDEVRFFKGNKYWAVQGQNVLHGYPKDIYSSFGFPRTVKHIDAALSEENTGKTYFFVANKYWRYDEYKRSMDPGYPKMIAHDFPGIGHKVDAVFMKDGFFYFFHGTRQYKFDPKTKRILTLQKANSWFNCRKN

Row | Structure (SMILES) | order of efficacy (acetophenones) (TRP-2) | order of efficacy (oxime derivatives) (TRP-2) | also measured
1 | COc1ccc(C(C)=O)c(O)c1 [2-Hydroxy-4-methoxyaceophenone] | 2,4-Dihydroxyacetophenone>2-Hydroxy-4-methoxyaceophenone >>>Arbutin | – | –
2 | O=C(NCCCCN1CCOCC1)c1cc2ccccc2o1 [CL-82198] | – | – | inhibition of MMP-13 (MMP-13): weak inhibition; activity against MMP-9 (MMP-9): complete lack of activity; activity against MMP-1 (MMP-1): complete lack of activity
3 | CC(=NO)c1c(O)cccc1O [2,6-Dihydroxyacetophenone Oxime] | – | 2,6-Dihydroxyacetophenone Oxime>2,5-Dihydroxyacetophenone Oxime | –
4 | CC(=O)c1c(O)cccc1O [2,6-Dihydroxyacetophenone] | 2,6-Dihydroxyacetophenone>2,5-Dihydroxyacetophenone | – | –
5 | CC(=O)c1cc(O)ccc1O [2,5-Dihydroxyacetophenone] | 2,6-Dihydroxyacetophenone>2,5-Dihydroxyacetophenone>2,4-Dihydroxyacetophenone | – | –
6 | CC(=NO)c1ccc(O)cc1O [2,4-Dihydroxyacetophenone Oxime] | – | 2,5-Dihydroxyacetophenone Oxime>2,4-Dihydroxyacetophenone Oxime>2-Hydroxy-4-methoxyaceophenone Oxime | –
7 | COc1ccc(C(C)=NO)c(O)c1 [2-Hydroxy-4-methoxyaceophenone Oxime] | – | 2,4-Dihydroxyacetophenone Oxime>2-Hydroxy-4-methoxyaceophenone Oxime | –
8 | CC(=O)c1ccc(O)cc1O [2,4-Dihydroxyacetophenone] | 2,5-Dihydroxyacetophenone>2,4-Dihydroxyacetophenone>2-Hydroxy-4-methoxyaceophenone | – | –
9 | OC[C@H]1O[C@@H](Oc2ccc(O)cc2)[C@H](O)[C@@H](O)[C@@H]1O [Arbutin, reference compound] | 2-Hydroxy-4-methoxyaceophenone >>>Arbutin | – | –
10 | Cc1cc(C)c(N(Cc2ccccc2)S(=O)(=O)c2ccc(OCCNC(=O)c3cc4ccccc4o3)cc2)c(C(=O)NO)c1 [WAY-170523] | – | – | inhibition of MMP-13 (MMP-13): potent
11 | CC(=NO)c1cc(O)ccc1O [2,5-Dihydroxyacetophenone Oxime] | – | 2,6-Dihydroxyacetophenone Oxime>2,5-Dihydroxyacetophenone Oxime>2,4-Dihydroxyacetophenone Oxime | –
